Laboratory results reported in ChEMBL document CHEMBL1142572, “A Madagascar Sponge Batzella sp. as a source of alkylated iminosugars” (2005).

test system: Staphylococcus epidermidis; assay: Antimicrobial activity against Staphylococcus epidermidis ATCC 12228; assay type: functional

Q: Which MIC does the source give for `CCCCCCCCCCC(O)C[C@H]1C[C@H](O)[C@@H](O)[C@@H](CO)N1` (stereo partly drawn) [BATZELLASIDE A] here?
A: ≤ 6.3 µg/mL

Q: With `CCCCCCCCCC(O)C[C@H]1C[C@H](O)[C@@H](O)[C@@H](CO)N1` (stereo partly drawn) [BATZELLASIDE B] as the compound, how does the MIC read?
A: ≤ 6.3 µg/mL

Q: For `CCCCCCCCCCCC(O)C[C@H]1C[C@H](O)[C@@H](O)[C@@H](CO)N1` (stereo partly drawn) [BATZELLASIDE C], which MIC is on record?
A: ≤ 6.3 µg/mL
